In patent US8466176B2 (priority 2008, dated 2013) one finds chromatographic logP and log p data, which are given here for 63 compounds.

Usually chromatographic logP stands for lipophilicity estimated from chromatographic retention. A low value points to a more hydrophilic compound.

A short description of the first series: logP(HCOOH) reported with HPLC/MS. To be noted: HCOOH (formic acid), logP(HCOOH), HPLC/MS.
Compound `Cn1nnnc1C(=NOCc1cccc(N(CCC2CCCCC2)C(=O)OC(C)(C)C)n1)c1ccccc1` [Example 141, tert-butyl (2-cyclohexylethyl){6-[({[(1-methyl-1H-tetrazol-5-yl)(phenyl)methylene]amino}oxy)methyl]pyridin-2-yl}carbamate] had a chromatographic logP of 6.56.
Same read-out and setting: the figure for `O=C1c2ccccc2C(=O)N1Cc1cccc(CCl)n1` [2-{[6-(chloromethyl)pyridin-2-yl]methyl}-1H-isoindole-1,3(2H)-dione] is 2.51.

Still in this series, the particulars now being: HPLC, logP(HCOOH), HPLC/MS.
In turn, `Cn1nnnc1C(=NOCc1cccc(CN)n1)c1ccccc1` [Example 52, 1-{6-[({[(1-methyl-1H-tetrazol-5-yl)(phenyl)methylene]amino}oxy)methyl]pyridin-2-yl}methanamine] showed a chromatographic logP of 1.23.
Same read-out and setting: under `Cc1sc(Br)nc1CBr` [2-bromo-4-(bromomethyl)-5-methyl-1,3-thiazole] stands 2.64.

Staying with this series, now noted: logP(HCOOH), HPLC/MS.
For `CC(C)(C)OC(=O)Nc1cccc(CO)n1` [tert-butyl [6-(hydroxymethyl)pyridin-2-yl]carbamate], the chromatographic logP was 1.14.
Same read-out and setting: the figure for `CSc1cccc(C(=NOCc2cccc(N3C(=O)c4ccccc4C3=O)n2)c2nnnn2C)c1` [2-(6-{[({[3-(methylsulfanyl)phenyl](1-methyl-1H-tetrazol-5-yl)methylene}amino)oxy]methyl}pyridin-2-yl)-1H-isoindole-1,3(2H)-dione] is 3.39; for `Cc1nnnn1C(=NOCc1csc(C#CC2CC2)n1)c1ccccc1` [Example 159] it is 3.65.
The compound `Fc1ccc(Br)nc1CBr` [6-bromo-2-(bromomethyl)-3-fluoropyridine] gave a chromatographic logP of 2.58.
The compound `CC(C)(C)OC(=O)Nc1cccc(Br)n1` [tert-butyl (6-bromopyridin-2-yl)carbamate] returned a chromatographic logP of 4.11.

Still in this series, the particulars now being: method [a]: HPLC on reversed phase columns, pH 2.3 with 0.1% phosphoric acid and acetonitrile as eluent.
`Cn1nnnc1C(=NOCc1cccc(N(CCC2CC(F)(F)C2(F)F)C(=O)OC(C)(C)C)n1)c1ccccc1` (stereo not drawn) [Example 140]: the log p was 5.05^[a].
`CC(=O)OCCCC#Cc1nc(CON=C(c2ccccc2)c2nnnn2C)cs1` [Example 137]: the log p is 3.17^[a].
The same measure, in the same setting: the figure for `Cn1nnnc1C(=NOCc1cccc(NCCC2CC(F)(F)C2(F)F)n1)c1ccccc1` (stereo not drawn) [Example 143] is 2.51^[a].

The same series, now with this note: method [b]: LC-MS at pH 2.7, 0.1% formic acid in water and acetonitrile, linear gradient 10% to 95% acetonitrile.
Turning to `Cn1nnnc1C(=NOCc1cccc(C#CCC2CCC2)n1)c1ccccc1` [Example 111], the log p was 4.39^[b].
The same measure, in the same setting: under `Cc1nnnn1C(=NOCc1cccc(C(=O)O)n1)c1ccccc1` [Example 15] stands 1.97^[b]; under `Cc1nnnn1C(=NOCc1cccc(NC(=S)NC(C)C)n1)c1ccccc1` [Example 12], 3.22^[b].
For the compound `Cn1nnnc1C(=NOCc1nc(C#CCOc2ccccc2)ccc1F)c1ccccc1` [Example 106], the log p is 4.04^[b].
For `Cc1cccc(CON=C(c2ccccc2)c2nnnn2C)n1` [Example 42], the log p was 1.67^[b].
Same read-out and setting: under `Cn1nnnc1C(=NOCc1cccc(F)n1)c1ccccc1` [Example 79] stands 2.77^[b]; under `Cn1nnnc1C(=NOCc1nc(C#CCC2CCCCC2)ccc1F)c1ccccc1` [Example 97], 5.28^[b]; under `Cn1nnnc1C(=NOCc1nc(C#CCc2ccccc2)ccc1F)c1ccccc1` [Example 100], 4.24^[b].
As to `CCCCC#Cc1nc(CON=C(c2ccccc2)c2nnnn2C)ccc1OC` [Example 127], the log p is 3.96^[b].
The same measure, in the same setting: the figure for `Cn1nnnc1C(=NOCc1cccc(C#CCc2cccc(F)c2)n1)c1ccccc1` [Example 112] is 4.16^[b].
Same read-out and setting: the figure for `Cn1nnnc1C(=NOCc1ncc(C(F)(F)F)cc1Cl)c1ccccc1` [Example 43] is 3.76^[b].
Still for that read-out and setting: under `Cn1nnnc1C(=NOCc1cccc(C(=O)NC(C)(C)C)n1)c1ccccc1` [Example 86] stands 3.37^[b]; under `Cn1nnnc1C(=NOCc1cccc(CNC(=O)CCc2ccccc2)n1)c1ccccc1` [Example 58], 2.82^[b]; under `Cn1nnnc1C(=NOCc1nc(C#CCCCC#N)ccc1F)c1ccccc1` [Example 103], 3.11^[b].
For `Cn1nnnc1C(=NOCc1cccc(C#CCn2ccc(C(F)(F)F)n2)n1)c1ccccc1` [Example 110], the log p is 3.62^[b].
Same read-out and setting: the figure for `Cc1nnnn1C(=NOCc1cccc(NC(=S)NCc2ccccc2)n1)c1ccccc1` [Example 10] is 3.52^[b]; for `Cn1nnnc1C(=NOCc1nc(C#CCCCC#N)sc1Cl)c1ccccc1` [Example 122] it is 3.58^[b]; for `Cc1nnnn1C(=NOCc1cccc(NC(=S)Nc2ccccc2)n1)c1ccccc1` [Example 5] it is 3.31^[b].
`Cn1nnnc1C(=NOCc1nc(C#CC2CCCC2)sc1Cl)c1ccccc1` [Example 116]: the log p was 5.31^[b].
Regarding `Cn1nnnc1C(=NOCc1nc(C#CCC2CCCC2)ccc1F)c1ccccc1` [Example 98], the log p was 4.92^[b].
On the same count and under the same terms, the figure for `CCCCCNC(=S)Nc1cccc(CON=C(c2ccccc2)n2nnnc2C)n1` [Example 13] is 3.82^[b].
As for `Cc1nnnn1C(=NOCc1cccc(NC(=S)NC2CCCC2)n1)c1ccccc1` [Example 9], the log p was 3.53^[b].

Still in this series, the particulars now being: method [b]: LC-MS at pH 2.7 with 0.1% formic acid in water and acetonitrile (0.1% formic acid), linear gradient 10% to 95% acetonitrile.
Take `Cn1nnnc1C(=NOCc1cccc(N(OCCc2ccccc2)C(=O)OC(C)(C)C)n1)c1ccccc1` [Example 281]: the log p is 4.89^[b].
In the case of `CCCCON(C(=O)OC(C)(C)C)c1cccc(CON=C(c2ccccc2)c2nnnn2C)n1` [Example 280], the log p was 4.75^[b].
The same measure, in the same setting: under `Cn1nnnc1C(=NOCc1cccc(NCC2CC2)n1)c1cccc(F)c1` [Example 290] stands 1.98^[b]; under `Cn1nnnc1C(=NOCc1cccc(N(OCC2CCCCC2)C(=O)OC(C)(C)C)n1)c1ccccc1` [Example 283], 6.25[b].
With `Cn1nnnc1C(=NOCc1csc(C#Cc2ccccc2C(F)(F)F)n1)c1ccccc1` [Example 267], the log p is 4.51^[b].
The same measure, in the same setting: the figure for `CCc1ccc(C#Cc2nc(CON=C(c3cccc(F)c3)c3nnnn3C)cs2)cc1` [Example 293] is 5^[b]; for `CCCCONc1cccc(CON=C(c2ccccc2)c2nnnn2C)n1` [Example 286] it is 3.39^[b].

Still in this series, the particulars now being: method [b]: LC-MS, pH 2.7 with 0.1% formic acid in water and acetonitrile (0.1% formic acid), linear gradient 10% to 95% acetonitrile.
Turning to `Cc1nnnn1C(=NOCc1csc(C#CCC2CCCCC2)n1)c1ccccc1` [Example 169], the log p is 5.41^[b].
On the same count and under the same terms, the figure for `Cn1nnnc1C(=NOCc1cccc(C#CCCCCCl)n1)c1ccccc1` [Example 211] is 3.99^[b]; for `Cn1nnnc1C(=NOCc1csc(C#Cc2cccc(F)c2)n1)c1ccccc1` [Example 264] it is 4.19^[b].
As to `COc1ccc(CON=C(c2ccccc2)c2nnnn2C)nc1C#CCCCC#N` [Example 135], the log p was 2.82^[b].
Same read-out and setting: under `Cc1nnnn1C(=NOCc1csc(C#CCC2CCCC2)n1)c1ccccc1` [Example 170] stands 4.97^[b]; under `Cn1nnnc1C(=NOCc1cccc(C#Cc2cccc(C(F)(F)F)c2)n1)c1ccccc1` [Example 218], 4.62^[b]; under `CC(C)c1ccc(C#Cc2nc(CON=C(c3ccccc3)c3nnnn3C)cs2)cc1` [Example 257], 5.29^[b].
With `Cn1nnnc1C(=NOCc1csc(Br)n1)c1cccc(F)c1` [Example 146], the log p is 3.23^[b].
In the case of `Cn1nnnc1C(=NOCc1csc(NCC2CC2)n1)c1ccccc1` [Example 162], the log p was 2.26^[b].
On to `Cn1nnnc1C(=NOCc1cccc(C#CCC2CCCCC2)n1)c1ccccc1` [Example 213], for which the log p was 5.17^[b].
For the compound `CCCC#Cc1nc(CON=C(c2ccccc2)n2nnnc2C)cs1` [Example 165], the log p is 4.04^[b].
Same read-out and setting: under `Cn1nnnc1C(=NOCc1cccc(C#Cc2ccccc2Cl)n1)c1ccccc1` [Example 215] stands 4.36^[b]; under `Cn1nnnc1C(=NOCc1cccc(C#Cc2ccc(F)cc2)n1)c1ccccc1` [Example 223], 4.11^[b]; under `Cn1nnnc1C(=NOCc1cccc(C#CCCO)n1)c1ccccc1` [Example 253], 2.23^[b].
Same read-out and setting: the figure for `Cn1nnnc1C(=NOCc1csc(C#Cc2ccc3ccccc3c2)n1)c1ccccc1` [Example 194] is 4.92^[b]; for `CCc1ccc(C#Cc2cccc(CON=C(c3ccccc3)c3nnnn3C)n2)cc1` [Example 230] it is 4.81^[b]; for `Cn1nnnc1C(=NOCc1cccc(C#CCCc2ccccc2)n1)c1ccccc1` [Example 210] it is 4.29^[b].
On the same count and under the same terms, the figure for `Cn1nnnc1C(=NOCc1cccc(NCC2CC2(Cl)Cl)n1)c1ccccc1` (stereo not drawn) [Example 205] is 2.75^[b]; for `COc1ccc(CON=C(c2ccccc2)c2nnnn2C)nc1C#CC1CCCCC1` [Example 132] it is 4.44^[b].
For `CCSCC#Cc1cccc(CON=C(c2ccccc2)c2nnnn2C)n1` [Example 243], the log p is 3.69^[b].
`Cn1nnnc1C(=NOCc1cccc(NCCOC2CCCC2)n1)c1ccccc1` [Example 204]: the log p is 2.14^[b].

Still in this series, the particulars now being: reversed phase HPLC column, pH 2.7, log p, method [b]: LC-MS at pH 2.7, 0.1% formic acid in water and acetonitrile, linear gradient 10% to 95% acetonitrile.
`Cn1nnnc1C(=NOCc1cccc(CN)n1)c1ccccc1` [Example 52, 1-{6-[({[(1-methyl-1H-tetrazol-5-yl)(phenyl)methylene]amino}oxy)methyl]pyridin-2-yl}methanamine] yielded a chromatographic logP of 1.23.

Staying with this series, now noted: reversed phase HPLC column, pH 2.7, log p, method [b]: LC-MS at pH 2.7 with 0.1% formic acid in water and acetonitrile (0.1% formic acid), linear gradient 10% to 95% acetonitrile.
For the compound `CCCCCCNc1nc(CON=C(c2cccc(SC)c2)c2nnnn2C)cs1` [Example 297], the chromatographic logP is 3.92.

Staying with this series, now noted: reversed phase HPLC column, pH 2.7, log p, method [b]: LC-MS, pH 2.7 with 0.1% formic acid in water and acetonitrile (0.1% formic acid), linear gradient 10% to 95% acetonitrile.
Turning to `Cc1nnnn1C(=NOCc1csc(C#CC2CC2)n1)c1ccccc1` [Example 159], the chromatographic logP worked out at 3.65.

Still in this series, the particulars now being: reversed phase HPLC columns, pH 2.3, log p, method [a]: HPLC on reversed phase columns, pH 2.3 with 0.1% phosphoric acid and acetonitrile as eluent.
`Cn1nnnc1C(=NOCc1cccc(N(CCC2CCCCC2)C(=O)OC(C)(C)C)n1)c1ccccc1` [Example 141, tert-butyl (2-cyclohexylethyl){6-[({[(1-methyl-1H-tetrazol-5-yl)(phenyl)methylene]amino}oxy)methyl]pyridin-2-yl}carbamate] showed a chromatographic logP of 6.56.
